Results from US20090247554A1, “KINASE INHIBITORS” (TAKEDA SAN DIEGO, INC., priority 2006, published 2009).

Target: T1, Aurora A Kinase (Homo sapiens, UniProt O14965)
T1 sequence (O14965 1-403): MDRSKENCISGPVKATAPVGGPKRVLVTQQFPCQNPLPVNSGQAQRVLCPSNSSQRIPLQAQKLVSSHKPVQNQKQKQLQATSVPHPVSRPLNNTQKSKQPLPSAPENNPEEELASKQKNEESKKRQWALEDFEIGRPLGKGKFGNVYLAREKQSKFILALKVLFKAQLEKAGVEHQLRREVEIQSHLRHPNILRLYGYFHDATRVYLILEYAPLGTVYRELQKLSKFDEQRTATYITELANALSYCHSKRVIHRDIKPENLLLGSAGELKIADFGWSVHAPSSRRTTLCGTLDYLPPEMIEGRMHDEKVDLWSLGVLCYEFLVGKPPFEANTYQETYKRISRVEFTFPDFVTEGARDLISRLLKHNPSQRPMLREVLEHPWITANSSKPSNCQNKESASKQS
Assay: Determination of inhibition of AIK (Aurora A kinase) by direct fluorescence polarization (IMAP)
Assay type: biochemical
Conditions: read-out: IC50 of Exemplified Compounds Against Aurora A Kinase
Method: A. Determination of Inhibition of AIK
The inhibitory properties of compounds relative to AIK may be determined by the Direct Fluorescence Polarization detection method (FP) using a Greiner small volume black 384-well-plate format under the following reaction conditions: 50 mM Hepes pH 7.3, 10 mM MgCl2, 10 mM NaCl, 1 mM DTT, 0.01% Brij35, 100 nM Fluorescein-LRRASLG peptide (provided by SYNPEP), 5% DMSO, 2.5 uM ATP. Detection of the reaction product is performed by addition of IMAP binding reagent (Molecular Devices). Reaction product may be determined quantitatively by FP using an Analyst HT plate reader (Molecular Devices) with an excitation wavelength at 485 nm and emission at 530 nm and using a Fluorescein 505 dichroic mirror.
The assay reaction may be initiated as follows: 2 ul of (3×) 300 nM Fl-Peptide/7.5 uM ATP was added to each well of the plate, followed by the addition of 2 ul of (3×) inhibitor (2.5 fold serial dilutions for 11 data points for each inhibitor) containing 15% DMSO. 2 ul of (3×) 7.5 nM AIK solution may be added to initiate the reaction (final enzyme concentration was 2.5 nM for AIK). The reaction mixture may then be incubated at room temperature for 45 min, and quenched and developed by addition of 20 ul of 1 to 400 diluted IMAP binding reagent in 1× proprietary IMAP binding buffer. Fluorescence polarization readings of the resulting reaction mixtures may be measured after a 60-minute incubation at room temperature.
IC50 values may be calculated by non-linear curve fitting of the compound concentrations and fluorescent polarization values to the standard IC50 equation.

IC50, ≤ 50 nM:
CCS(=O)(=O)c1cccc(-c2nc(Nc3cc(C)[nH]n3)c3cc(C)sc3n2)c1 [Example 7, 2-(3-(ethylsulfonyl)phenyl)-6-methyl-N-(5-methyl-1H-pyrazol-3-yl)thieno[2,3-d]pyrimidin-4-amine]
Cc1cc(Nc2nc(Sc3ccc(NC(=O)C4CC4)cc3)nc3sc(C)cc23)n[nH]1 [Example 8, N-(4-(6-Methyl-4-(5-methyl-1H-pyrazol-3-ylamino)thieno[2,3-d]pyrimidin-2-ylthio)phenyl)cyclopropanecarboxamide]
CCS(=O)(=O)n1cc(CN(C)C)c2ccc(-c3nc(Nc4cc(C)[nH]n4)c4cc(C)sc4n3)cc21 [Example 4, 2-(3-((dimethylamino)methyl)-1-(ethylsulfonyl)-1H-indol-6-yl)-6-methyl-N-(5-methyl-1H-pyrazol-3-yl)thieno[2,3-d]pyrimidin-4-amine]
CCS(=O)(=O)n1ccc2ccc(-c3nc(Nc4cc(C)[nH]n4)c4cscc4n3)cc21 [Example 6, [2-(1-Ethanesulfonyl-1H-indol-6-yl)-thieno[3,4-d]pyrimidin-4-yl]-(5-methyl-1H-pyrazol-3-yl)-amine]
CCS(=O)(=O)n1ccc2ccc(-c3nc(Nc4cc(C)[nH]n4)c4cc(C)sc4n3)cc21 [Example 3, 2-(1-(ethylsulfonyl)-1H-indol-6-yl)-6-methyl-N-(5-methyl-1H-pyrazol-3-yl)thieno[2,3-d]pyrimidin-4-amine]
CCS(=O)(=O)c1cccc(-c2nc(Nc3cc(C)[nH]n3)c3cscc3n2)c1 [Example 5, [2-(3-Ethanesulfonyl-phenyl)-thieno[3,4-d]pyrimidin-4-yl]-(5-methyl-1H-pyrazol-3-yl)-amine]
